Results: PMC8692993, “PPARα and PPARγ activation is associated with pleural mesothelioma invasion but therapeutic inhibition is ineffective” (iScience, 2021)

How the values were obtained:
[1] = In vitro metabolic stability in mouse liver microsomes; type: in vitro ADME
Method: The test compound (1 μM) was incubated at 37°C with mouse liver microsomes (XenoTech) at a protein concentration of 0.4 mg/mL. The metabolic reaction was initiated by the addition of a NADPH-regenerating system and quenched at various time points over a 60 min incubation period by the addition of acetonitrile. Control samples (without NADPH) were included (and quenched at 2, 30, 60 min) to monitor for potential degradation in the absence of cofactor. The degradation half-life and in vitro intrinsic clearance (in vitro CLint) in microsomes were calculated using the apparent first order degradation rate constant for substrate depletion ([Obach, 1999]).
Compound quantification was performed using a Xevo G2 QTOF (in vitro metabolic stability) using positive electrospray ionisation under MS^E mode or a Waters Xevo TQD (mouse exposure) mass spectrometer using positive electrospray ionisation multiple-reaction monitoring mode. Compounds were eluted using an acetonitrile-water/0.05% formic acid gradient at a flow rate of 0.4 mL/min operating over a 4 min cycle on a Waters Acquity UPLC using a Supelco Ascentis Express RP C8 column (50 × 2.1 mm, 2.7 μm). Extraction was performed by precipitation using acetonitrile (1:1 volume ratio for microsomes and 2:1 volume ratio for plasma samples) followed by centrifugation. Compound concentrations were quantified against calibration standards prepared in an appropriate matrix to match the test samples (e.g. plasma or microsomes).

renal cell carcinoma = tested on: renal cell carcinoma; parameters: method as in Abu Aboud et al., 2015; details: 25 μM; ref Abu Aboud et al., 2015; cited from earlier work
PPARα = molecular target: T1, PPARα (Homo sapiens, UniProt Q07869); test: LanthaScreen TR-FRET binding assay, PPARα; details: 2 h incubation, mean of 3 replicates ± SEM
T1 sequence (Q07869 239-466 limits assumed): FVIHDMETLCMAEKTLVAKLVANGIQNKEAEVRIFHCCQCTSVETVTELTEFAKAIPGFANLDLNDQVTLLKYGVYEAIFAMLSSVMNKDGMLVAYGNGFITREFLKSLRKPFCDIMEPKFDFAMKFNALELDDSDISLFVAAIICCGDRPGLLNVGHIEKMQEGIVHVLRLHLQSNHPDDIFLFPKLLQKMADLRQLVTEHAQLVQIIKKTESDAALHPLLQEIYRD
Method: The LanthaScreen™ TR-FRET binding assay was performed following the manufacturer's guidelines (PV4894, Invitrogen) as follows, 20 mM stock solution of the ligand or control in DMSO were serially diluted using 100% DMSO to produce a range of concentrations from 100 μM to 1 pM. The test compound solutions were mixed with the reaction buffer in a 1 (ligand) in 10 (reaction buffer) dilution for a final 2X ligand concentration. This was mixed with the reaction components (glutathione S-transferase (GST)-PPPARγLBD (0.5 nM)/, terbium (Tb)-labelled anti-GST antibody (5 nM) and Fluormone pan-PPAR green (5 nM for PPARγ; 20 nM for PPARα) at room temperature in a ratio of 8 μLl 2X ligand solution: 4 μLl of 4XFluormone: and 4 μLl 4X GST-PPPARγLBD/terbium (Tb)-labelled anti-GST antibody to produce a final reaction mixture volume of 16 μL. The concentration of DMSO in the final reaction mixture was 5%. The reaction mixture was kept at room temperature for 2 h prior to recording the TR-FRET emission spectra using a CLARIOstar Plus microplate reader (BMG Labtech). […] Results are expressed as the ratio of fluorescence intensity at 520 nm (Fluormone emission) and 490 nm (Tb emission). […] For each compound three serial dilutions were prepared and measured separately. The IC50 and SEM values were determined using a sigmoidal dose-response equation with varying slope using GraphPad Prism.

[2] = tested on: JU77 human mesothelioma cell line; test: Soft agar colony formation assay; type: cell-based; details: JU77, GW6471 0.5-8 μM, p <0.05
Method: Cells were incubated with different concentrations of GW6471 (from 0.5 μM to 8 μM) for a soft agar colony formation assay ([Horibata et al., 2015]). Briefly, 3% 2-hydroxyethyl agarose (agarose, A4018; Sigma-Aldrich, Australia) was prepared as stock solution. The bottom layer was prepared by incubating 20% agarose gel in R10 complete medium, RPMI 1640 (Invitrogen) supplemented with 10% foetal calf serum (FCS; Life Technologies), 20 mM HEPES (Sigma-Aldrich), 0.05 mM 2-mercaptoethanol (pH 7.2; Merck, Kilsyth, Australia), 60 μg/mL penicillin (Life Technologies), 50 μg/mL gentamicin (David Bull Labs), for a final concentration of 0.6%, 2mL per well, at 4°C for 1 h to allow the mixture to solidify, then incubating at 37°C for at least 30 min before seeding the cells. The cell-containing layer (10% agarose gel in R10 complete medium for a final concentration of 0.3%, 1 mL per well) was prepared with a concentration of 1,000 cells/mL. 1 mL of cells was then transfer to each well. […]
Colony counting was performed by adding 1 mL of 0.005% crystal violet (C0775; Sigma-Aldrich, Australia) in PBS on top of each well and incubating at room temperature for 24 h. Pictures were taken and colonies counted with ImageJ (v1.52a).

Structure (SMILES): CCC(=O)NC[C@H](Cc1ccc(OCCc2nc(-c3ccccc3)oc2C)cc1)N/C(C)=C\C(=O)c1ccc(C(F)(F)F)cc1 [GW6471]
- In vitro CLint ([1]; NADPH-activated mouse liver microsomes): 556 μL/min/mg protein
- Degradation half-life ([1]; NADPH-activated mouse liver microsomes, 1 μM, 0.4 mg/mL protein): 3 min
- Stability in the absence of NADPH ([1]; mouse liver microsomes without NADPH): stable
- Cell-cycle arrest and apoptosis (renal cell carcinoma): significant cell-cycle arrest and apoptosis
- IC50 (PPARα): 95.3 ± 42 nM
- Number of colonies formed [2]: significant reduction in the number of colonies formed
